Measurements from PubChem BioAssay AID1963846 (Molecular Pharmacology Branch, DTP, NCI, 2024).
Where “and” joins values, the source holds several entries; their conditions need not be identical. Identical values can stand only once.

System: 454973-116-R2-J3-PDC complex spheroid viability
Assay: Anticancer human tumor 454973-116-R2-J3-PDC patient-derived pancreatic carcinoma cell line growth inhibition [POLQ]
Settings: for viability, T/C: stronger effect = lower value
Protocol: Multicellular complex tumor spheroid response to Polymerase (POL) inhibitors (novobiocin, ART-558, RP6685) in combination with a variety of drugs and investigational agents in selected tumor cell lines
The POL inhibitors (novobiocin, ART-558, and RP6685) were evaluated both individually and in combination with standard of care and investigational anticancer small molecules within a complex spheroid model of solid tumors. . Complex spheroids include a stromal component modeled by human endothelial cells (HUVEC) and fibroblasts modeled by human mesenchymal stem cells (MSCs). The concentration ranges selected for each drug and investigational agent were based upon clinically achievable concentrations if the clinical Cmax of the agent was known.
Compounds. The drugs and investigational agents: novobiocin (NSC847541), ART-558 (NSC835418), RP-6685 (NSC848927), peposertib (NSC802822), ceralasertib (NSC780249), elimusertib (NSC800525), camonsertib (NSC841442), AZD-1390 (NSC803789), olaparib (NSC753686), talazoparib (NSC767125), rucaparib (NSC756644), sotorasib (NSC818433), MRTX-1133 (NSC836407), SN-38 (NSC673596), topotecan (NSC609699), epotoside (NSC141540), doxorubicin (NSC123127), gemcitabine (NSC613327), 5-fluorouracil (NSC19893), paclitaxel (NSC125973), vemurafenib (NSC761431), MSA-2 (NSC828583), SN-011 (NSC837082), adavosertib (NSC754352), prexasertib (NSC758257), carboplatin (NSC241240) and oxaliplatin (NSC266046), were obtained from the National Cancer Institute (NCI) Developmental Therapeutics Program Chemical Repository (21). The FDA-approved anticancer drug set is available from the Developmental Therapeutics Program at https://dtp.cancer.gov/organization/dscb/obtaining/. […] The stock solutions were prepared in dimethyl sulfoxide (DMSO, Sigma-Aldrich, St. Louis, MO, cat. D2650), except for the platinum compounds which were prepared in saline (Quality Biological, Gaithersburg, MD, cat. 114-055-101), at 800-fold the tested concentration and stored at -70 degrees C prior to their use. All drugs and investigational agents were tested over a range starting from a high concentration at or near the clinical Cmax and decreasing in half-log increments. If the clinical Cmax for an agent had not been determined, the highest concentration tested was 10 microM, except for SN-38, which was tested at a high concentration of 1 microM.
Cell Culture. All cells were maintained in an incubator at 37 degrees C and 5% CO2 with 95% humidity. The PDC lines were cultured according to standard operating procedures established by the NCI PDMR (https://pdmr.cancer.gov). Table 3 of the manuscript, lists the cell lines along with the number of the three cell types plated to form the mct-spheroids and media for tumor cell growth. After thawing, all PDC lines, except 997537-175-T-J1-PDC and 415267-285-R-J2-PDC, were cultured in Matrigel-coated flasks prepared with a working solution of 1X Ham's F-12 nutrient mix, without supplementation (Thermo Fisher Scientific, cat. 11765054), 100 U/mL penicillin-streptomycin (Thermo Fisher Scientific, cat. 15140122), and 2.5% Matrigel (Corning Inc., Corning, NY, cat. 354248) for the first three passages. The two PDC lines 997537-175-T-J1-PDC and 415267-285-R-J2-PDC were cultured on uncoated flasks. The 857933-349-R-J2-PDC line was cultured in 6C/Colon 1B media containing advanced DMEM/F-12 (Thermo Fisher Scientific, cat. 12634028), 10 mM HEPES (Thermo Fisher Scientific, cat. 15630080), 1X GlutaMAX supplement (Thermo Fisher Scientific, cat. 35050061), 0.1 mg/mL primocin (InvivoGen, San Diego, CA, cat. ant-pm-2), 10% defined fetal bovine serum, heat inactivated (HyClone Laboratories Inc., Logan, UT, cat. SH30070.03HI), 50% L-WRN conditioned media (ATCC, cat. CRL-3276), 1.25 mM N-Acetyl-L-cysteine (Sigma-Aldrich, cat. A9165), 10 mM nicotinamide (Sigma-Aldrich, cat. N0636), 1X B-27 supplement (Thermo Fisher Scientific, cat. 17504044), 1X N-2 supplement (Thermo Fisher Scientific, cat. […]

[1] = curve of first compound, second compound 0.0316 µM
[2] = curve of first compound, second compound 0.1 µM
[3] = curve of first compound, second compound 0.316 µM
[4] = curve of first compound, second compound 1 µM
[5] = curve of first compound, second compound 3.16 µM
[6] = curve of first compound, second compound 10 µM
[7] = second compound 0.0316 µM, first compound 0.0316 µM
[8] = second compound 0.0316 µM, first compound 0.1 µM
[9] = second compound 0.0316 µM, first compound 0.316 µM
[10] = second compound 0.0316 µM, first compound 1 µM
[11] = second compound 0.1 µM, first compound 0.0316 µM
[12] = second compound 0.1 µM, first compound 0.1 µM
[13] = second compound 0.1 µM, first compound 0.316 µM
[14] = second compound 0.1 µM, first compound 1 µM
[15] = second compound 0.316 µM, first compound 0.0316 µM
[16] = second compound 0.316 µM, first compound 0.1 µM
[17] = second compound 0.316 µM, first compound 0.316 µM
[18] = second compound 0.316 µM, first compound 1 µM
[19] = second compound 1 µM, first compound 0.0316 µM
[20] = second compound 1 µM, first compound 0.1 µM
[21] = second compound 1 µM, first compound 0.316 µM
[22] = second compound 1 µM, first compound 1 µM
[23] = second compound 3.16 µM, first compound 0.0316 µM
[24] = second compound 3.16 µM, first compound 0.1 µM
[25] = second compound 3.16 µM, first compound 0.316 µM
[26] = second compound 3.16 µM, first compound 1 µM
[27] = second compound 10 µM, first compound 0.0316 µM
[28] = second compound 10 µM, first compound 0.1 µM
[29] = second compound 10 µM, first compound 0.316 µM
[30] = second compound 10 µM, first compound 1 µM
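Note: spheroids exposed to drugs for seven days before measurement.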
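Throughout, for viability, T/C: percent viability relative to DMSO vehicle control wells taken as 100%.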

`CCc1cc2c(N3CCc4c(cc(Cn5ccnc5)cc4-c4cn(C)nc4C(F)(F)F)C3=O)ccnc2c(OC)n1` + Cc1cccc(N(C)C(=O)C2C(O)CCN2c2nc(C)cc(C(F)(F)F)c2C#N)c1 was tested, and the IC50 [1] was > 10 µM, the IC50 [2] was > 10 µM and the IC50 [3] was > 10 µM. The IC50 [4] was > 10 µM, the IC50 [5] was > 10 µM and the IC50 [6] was > 10 µM. It also gave a viability, T/C [7] of 89.3%, a viability, T/C [8] of 86.2% and a viability, T/C [9] of 93.7%. It also gave a viability, T/C [10] of 77.8%, a viability, T/C (second compound 0.0316 µM, first compound 3.16 µM) of 82.2% and a viability, T/C (second compound 0.0316 µM, first compound 10 µM) of 62%. It also gave a viability, T/C [11] of 102%, a viability, T/C [12] of 86% and a viability, T/C [13] of 82%. For the same compound, the viability, T/C [14] was 85.9%, the viability, T/C (second compound 0.1 µM, first compound 3.16 µM) was 69.3% and the viability, T/C (second compound 0.1 µM, first compound 10 µM) was 62.1%. For the same compound, the viability, T/C [15] was 94%, the viability, T/C [16] was 89% and the viability, T/C [17] was 84.4%. The viability, T/C [18] was 83.4%, the viability, T/C (second compound 0.316 µM, first compound 3.16 µM) was 74% and the viability, T/C (second compound 0.316 µM, first compound 10 µM) was 61.5%. It also gave a viability, T/C [19] of 95.2%, a viability, T/C [20] of 85.2% and a viability, T/C [21] of 96%. It also gave a viability, T/C [22] of 78.4%, a viability, T/C (second compound 1 µM, first compound 3.16 µM) of 80.8% and a viability, T/C (second compound 1 µM, first compound 10 µM) of 61.7%. The viability, T/C [23] was 97.8%, the viability, T/C [24] was 97.8% and the viability, T/C [25] was 91.2%. For the same compound, the viability, T/C [26] was 74%, the viability, T/C (second compound 3.16 µM, first compound 3.16 µM) was 72.2% and the viability, T/C (second compound 3.16 µM, first compound 10 µM) was 57.3%. The viability, T/C [27] was 91.3%, the viability, T/C [28] was 87.5% and the viability, T/C [29] was 72.1%. For the same compound, the viability, T/C [30] was 74%, the viability, T/C (second compound 10 µM, first compound 3.16 µM) was 70.3% and the viability, T/C (second compound 10 µM, first compound 10 µM) was 55.8%.

In the case of `COc1cc2cc(C(=O)CCC(=O)O)sc2cc1OC`, the viability, T/C (compound 0.0316 µM) is reported as 101% and 105% (2×), the viability, T/C (compound 0.1 µM) is reported as 101% (2×) and 99.3% and the viability, T/C (compound 0.316 µM) is reported as 100% and 105% and 108%. For the same compound, the viability, T/C (compound 1 µM) was 96.9% and 103% and 106%, the viability, T/C (compound 3.16 µM) was 94.2% and 105% and 114% and the viability, T/C (compound 10 µM) was 96.2% and 95.3% and 93.4%. The IC50 (curve of compound) was > 10 µM.

With `CCc1c2c(nc3ccc(O)cc13)-c1cc3c(c(=O)n1C2)COC(=O)[C@]3(O)CC` + Cc1cccc(N(C)C(=O)C2C(O)CCN2c2nc(C)cc(C(F)(F)F)c2C#N)c1 the IC50 [1] was < 0.00316 µM, the IC50 [2] was < 0.00316 µM and the IC50 [3] was < 0.00316 µM. For the same compound, the IC50 [4] was < 0.00316 µM, the IC50 [5] was < 0.00316 µM and the IC50 [6] was < 0.00316 µM. The viability, T/C (second compound 0.0316 µM, first compound 0.00316 µM) was 32.6%, the viability, T/C (second compound 0.0316 µM, first compound 0.01 µM) was 17.2% and the viability, T/C [7] was 13.2%. It also gave a viability, T/C [8] of 6.84%, a viability, T/C [9] of 2.58% and a viability, T/C [10] of 1.69%. It also gave a viability, T/C (second compound 0.1 µM, first compound 0.00316 µM) of 31.1%, a viability, T/C (second compound 0.1 µM, first compound 0.01 µM) of 19.1% and a viability, T/C [11] of 13.6%. For the same compound, the viability, T/C [12] was 5.52%, the viability, T/C [13] was 2.13% and the viability, T/C [14] was 1.7%. The viability, T/C (second compound 0.316 µM, first compound 0.00316 µM) was 28.8%, the viability, T/C (second compound 0.316 µM, first compound 0.01 µM) was 17.2% and the viability, T/C [15] was 15%. It also gave a viability, T/C [16] of 5.17%, a viability, T/C [17] of 1.9% and a viability, T/C [18] of 1.61%. The viability, T/C (second compound 1 µM, first compound 0.00316 µM) was 35.7%, the viability, T/C (second compound 1 µM, first compound 0.01 µM) was 18.7% and the viability, T/C [19] was 11.5%. It also gave a viability, T/C [20] of 5.4%, a viability, T/C [21] of 2.24% and a viability, T/C [22] of 1.72%. It also gave a viability, T/C (second compound 3.16 µM, first compound 0.00316 µM) of 33.6%, a viability, T/C (second compound 3.16 µM, first compound 0.01 µM) of 21.9% and a viability, T/C [23] of 13.1%. It also gave a viability, T/C [24] of 5.13%, a viability, T/C [25] of 2.23% and a viability, T/C [26] of 1.68%. For the same compound, the viability, T/C (second compound 10 µM, first compound 0.00316 µM) was 26.3%, the viability, T/C (second compound 10 µM, first compound 0.01 µM) was 21.5% and the viability, T/C [27] was 12.8%. For the same compound, the viability, T/C [28] was 4.56%, the viability, T/C [29] was 1.72% and the viability, T/C [30] was 4.16%.
